Measurements from ChEMBL document CHEMBL4229379, “Synthesis and structure-activity relationship of novel bisindole amidines active against MDR Gram-positive and Gram-negative bacteria” (Eur J Med Chem, 2018).
In brackets after ≈: the same amount, converted by molar mass.

Experiments:
[1] = test system: Enterococcus faecium; experiment: Antibacterial activity against vancomycin-resistant Enterococcus faecium ATCC 700221 after 18 hrs by CLSI broth microdilution method; assay type: functional; conditions: ATCC 700221, 18 h
[2] = test system: Enterobacter cloacae; experiment: Antibacterial activity against Enterobacter cloacae ATCC 43560 after 18 hrs by CLSI broth microdilution method; assay type: functional; conditions: ATCC 43560, 18 h
[3] = test system: Enterococcus faecalis; experiment: Antibacterial activity against vancomycin-resistant Enterococcus faecalis 09-9 after 18 hrs by CLSI broth microdilution method; assay type: functional; conditions: 09-9, 18 h
[4] = test system: Enterococcus faecium; experiment: Antibacterial activity against vancomycin-resistant Enterococcus faecium 12-1 after 18 hrs by CLSI broth microdilution method; assay type: functional; conditions: 12-1, 18 h
[5] = test system: Escherichia coli; experiment: Antibacterial activity against extended-spectrum beta-lactamase deficient Escherichia coli ATCC 25922 after 18 hrs by CLSI broth microdilution method; assay type: functional; conditions: ATCC 25922, 18 h
[6] = test system: Staphylococcus epidermidis; experiment: Antibacterial activity against methicillin-resistant Staphylococcus epidermidis 12-8 after 18 hrs by CLSI broth microdilution method; assay type: functional; conditions: 12-8, 18 h
[7] = test system: Klebsiella aerogenes; experiment: Antibacterial activity against Enterobacter aerogenes ATCC 13048 after 18 hrs by CLSI broth microdilution method; assay type: functional; conditions: ATCC 13048, 18 h
[8] = test system: Klebsiella pneumoniae; experiment: Antibacterial activity against extended-spectrum beta-lactamase harboring Klebsiella pneumoniae ATCC 700603 after 18 hrs by CLSI broth microdilution method; assay type: functional; conditions: Klebsiella pneumoniae, 700603, 18 h
[9] = test system: Escherichia coli; experiment: Antibacterial activity against extended-spectrum beta-lactamase deficient Escherichia coli 1515 after 18 hrs by CLSI broth microdilution method; assay type: functional; conditions: Escherichia coli, 1515, 18 h
[10] = test system: Staphylococcus aureus; experiment: Antibacterial activity against methicillin-resistant Staphylococcus aureus 12-33 after 18 hrs by CLSI broth microdilution method; assay type: functional; conditions: 12-33, 18 h
[11] = test system: Pseudomonas aeruginosa; experiment: Antibacterial activity against Pseudomonas aeruginosa 12-16 after 18 hrs by CLSI broth microdilution method; assay type: functional; conditions: 12-16, 18 h
[12] = test system: Citrobacter freundii; experiment: Antibacterial activity against Citrobacter freundii ATCC 43864 after 18 hrs by CLSI broth microdilution method; assay type: functional; conditions: ATCC 43864, 18 h
[13] = test system: Escherichia coli; experiment: Antibacterial activity against extended-spectrum beta-lactamase harboring Escherichia coli 12-15 after 18 hrs by CLSI broth microdilution method; assay type: functional; conditions: 12-15, 18 h
[14] = test system: Providencia rettgeri; experiment: Antibacterial activity against Providencia rettgeri ATCC 31052 after 18 hrs by CLSI broth microdilution method; assay type: functional; conditions: ATCC 31052, 18 h
[15] = test system: Klebsiella pneumoniae; experiment: Antibacterial activity against new delhi metallo-beta-lactamase-1 harboring Klebsiella pneumoniae ATCC BAA-2146 after 18 hrs by CLSI broth microdilution method; assay type: functional; conditions: ATCC BAA-2146, 18 h
[16] = Cytotoxicity against HEK293T cells assessed as reduction in cell viability after 48 hrs by MTS assay; assay type: cell-based, HEK-293T; conditions: human
[17] = test system: Acinetobacter calcoaceticus; experiment: Antibacterial activity against Acinetobacter calcoaceticus ATCC 19606 after 18 hrs by CLSI broth microdilution method; assay type: functional; conditions: ATCC 19606, 18 h
[18] = test system: Enterococcus faecium; experiment: Antibacterial activity against vancomycin-sensitive Enterococcus faecium 12-3 after 18 hrs by CLSI broth microdilution method; assay type: functional; conditions: 12-3, 18 h
[19] = test system: Pseudomonas aeruginosa; experiment: Antibacterial activity against Pseudomonas aeruginosa PAO1 after 18 hrs by CLSI broth microdilution method; assay type: functional; conditions: PAO1, 18 h
[20] = test system: Enterococcus faecalis; experiment: Antibacterial activity against vancomycin-resistant Enterococcus faecalis ATCC 51299 after 18 hrs by CLSI broth microdilution method; assay type: functional; conditions: ATCC 51299, 18 h
[21] = test system: Klebsiella pneumoniae; experiment: Antibacterial activity against extended-spectrum beta-lactamase deficient Klebsiella pneumoniae 12-4 after 18 hrs by CLSI broth microdilution method; assay type: functional; conditions: 12-4, 18 h
[22] = test system: Staphylococcus aureus; experiment: Antibacterial activity against methicillin-sensitive Staphylococcus aureus ATCC 29213 after 18 hrs by CLSI broth microdilution method; assay type: functional; conditions: ATCC 29213, 18 h
[23] = test system: Staphylococcus epidermidis; experiment: Antibacterial activity against methicillin-sensitive Staphylococcus epidermidis 12-6 after 18 hrs by CLSI broth microdilution method; assay type: functional; conditions: 12-6, 18 h
[24] = test system: Enterococcus faecalis; experiment: Antibacterial activity against vancomycin-sensitive Enterococcus faecalis ATCC 29212 after 18 hrs by CLSI broth microdilution method; assay type: functional; conditions: ATCC 29212, 18 h
[25] = test system: Proteus mirabilis; experiment: Antibacterial activity against Proteus mirabilis 12-6 after 18 hrs by CLSI broth microdilution method; assay type: functional; conditions: 12-6, 18 h
[26] = test system: Klebsiella pneumoniae; experiment: Antibacterial activity against extended-spectrum beta-lactamase deficient Klebsiella pneumoniae 7 after 18 hrs by CLSI broth microdilution method; assay type: functional; conditions: Klebsiella pneumoniae, 7, 18 h
[27] = test system: Escherichia coli; experiment: Antibacterial activity against extended-spectrum beta-lactamase deficient Escherichia coli 12-14 after 18 hrs by CLSI broth microdilution method; assay type: functional; conditions: 12-14, 18 h
[28] = test system: Klebsiella pneumoniae; experiment: Antibacterial activity against extended-spectrum beta-lactamase harboring Klebsiella pneumoniae 12-8 after 18 hrs by CLSI broth microdilution method; assay type: functional; conditions: 12-8, 18 h
[29] = test system: Serratia marcescens; experiment: Antibacterial activity against Serratia marcescens ATCC 21074 after 18 hrs by CLSI broth microdilution method; assay type: functional; conditions: ATCC 21074, 18 h
[30] = test system: Staphylococcus aureus; experiment: Antibacterial activity against methicillin-sensitive Staphylococcus aureus 15 after 18 hrs by CLSI broth microdilution method; assay type: functional; conditions: Staphylococcus aureus, 15, 18 h
[31] = test system: Pseudomonas aeruginosa; experiment: Antibacterial activity against Pseudomonas aeruginosa ATCC 27853 after 18 hrs by CLSI broth microdilution method; assay type: functional; conditions: ATCC 27853, 18 h
[32] = test system: Proteus vulgaris; experiment: Antibacterial activity against Proteus vulgaris ATCC 29905 after 18 hrs by CLSI broth microdilution method; assay type: functional; conditions: ATCC 29905, 18 h
[33] = test system: Enterococcus faecalis; experiment: Antibacterial activity against vancomycin-sensitive Enterococcus faecalis 12-5 after 18 hrs by CLSI broth microdilution method; assay type: functional; conditions: 12-5, 18 h
[34] = test system: Staphylococcus aureus; experiment: Antibacterial activity against methicillin-resistant Staphylococcus aureus ATCC 33591 after 18 hrs by CLSI broth microdilution method; assay type: functional; conditions: ATCC 33591, 18 h
[35] = test system: Staphylococcus epidermidis; experiment: Antibacterial activity against methicillin-sensitive Staphylococcus epidermidis ATCC 12228 after 18 hrs by CLSI broth microdilution method; assay type: functional; conditions: ATCC 12228, 18 h
[36] = test system: Stenotrophomonas maltophilia; experiment: Antibacterial activity against Stenotrophomonas maltophilia ATCC 13636 after 18 hrs by CLSI broth microdilution method; assay type: functional; conditions: ATCC 13636, 18 h
[37] = test system: Staphylococcus aureus; experiment: Antibacterial activity against methicillin-sensitive Staphylococcus aureus 12-28 after 18 hrs by CLSI broth microdilution method; assay type: functional; conditions: 12-28, 18 h

Compound	MIC [1]	MIC [2]	MIC [3]	MIC [4]	MIC [5]	MIC [6]	MIC [7]	MIC [8]	MIC [9]	MIC [10]	MIC [11]	MIC [12]	MIC [13]	MIC [14]	MIC [15]	CC50 at 48 h [16]	MIC [17]	MIC [18]	MIC [19]	MIC [20]	also measured
CCC(C)NC(=N)c1ccc2cc(-c3cncc(-c4cc5ccc(C(=N)NC(C)CC)cc5[nH]4)c3)[nH]c2c1 (centres undefined)	> 64 µg/mL	> 64 µg/mL	> 64 µg/mL	64 µg/mL (≈ 127 µM)	> 64 µg/mL	8 µg/mL (≈ 15.8 µM)	> 64 µg/mL	> 64 µg/mL	> 64 µg/mL	16 µg/mL (≈ 31.6 µM)	> 64 µg/mL	> 64 µg/mL	> 64 µg/mL	> 64 µg/mL	> 64 µg/mL	22.8 µg/mL (≈ 45.1 µM)	> 64 µg/mL	> 64 µg/mL	> 64 µg/mL	> 64 µg/mL	MIC [21]: > 64 µg/mL; MIC [22]: 8 µg/mL (≈ 15.8 µM); MIC [23]: 8 µg/mL (≈ 15.8 µM); MIC [24]: > 64 µg/mL; MIC [25]: > 64 µg/mL; MIC [26]: > 64 µg/mL; MIC [27]: > 64 µg/mL; MIC [28]: > 64 µg/mL; MIC [29]: > 64 µg/mL; MIC [30]: 16 µg/mL (≈ 31.6 µM); MIC [31]: > 64 µg/mL; MIC [32]: > 64 µg/mL; MIC [33]: > 64 µg/mL; MIC [34]: 8 µg/mL (≈ 15.8 µM); MIC [35]: 8 µg/mL (≈ 15.8 µM); MIC [36]: > 64 µg/mL; MIC [37]: 16 µg/mL (≈ 31.6 µM)
COCCNC(=N)c1ccc2cc(-c3ccc(-c4cc5ccc(C(=N)NCCOC)cc5[nH]4)cc3)[nH]c2c1	0.5 µg/mL (≈ 0.983 µM)	2 µg/mL (≈ 3.93 µM)	1 µg/mL (≈ 1.97 µM)	0.5 µg/mL (≈ 0.983 µM)	2 µg/mL (≈ 3.93 µM)	0.125 µg/mL (≈ 0.246 µM)	8 µg/mL (≈ 15.7 µM)	16 µg/mL (≈ 31.5 µM)	8 µg/mL (≈ 15.7 µM)	0.25 µg/mL (≈ 0.492 µM)	32 µg/mL (≈ 62.9 µM)	2 µg/mL (≈ 3.93 µM)	4 µg/mL (≈ 7.86 µM)	8 µg/mL (≈ 15.7 µM)	8 µg/mL (≈ 15.7 µM)	3.95 µg/mL (≈ 7.77 µM)	32 µg/mL (≈ 62.9 µM)	0.5 µg/mL (≈ 0.983 µM)	32 µg/mL (≈ 62.9 µM)	0.5 µg/mL (≈ 0.983 µM)	MIC [21]: 8 µg/mL (≈ 15.7 µM); MIC [22]: 0.25 µg/mL (≈ 0.492 µM); MIC [23]: 0.125 µg/mL (≈ 0.246 µM); MIC [24]: 0.5 µg/mL (≈ 0.983 µM); MIC [25]: 32 µg/mL (≈ 62.9 µM); MIC [26]: 8 µg/mL (≈ 15.7 µM); MIC [27]: 2 µg/mL (≈ 3.93 µM); MIC [28]: 8 µg/mL (≈ 15.7 µM); MIC [29]: 16 µg/mL (≈ 31.5 µM); MIC [30]: 0.25 µg/mL (≈ 0.492 µM); MIC [31]: 16 µg/mL (≈ 31.5 µM); MIC [32]: 16 µg/mL (≈ 31.5 µM); MIC [33]: 2 µg/mL (≈ 3.93 µM); MIC [34]: 0.25 µg/mL (≈ 0.492 µM); MIC [35]: 0.125 µg/mL (≈ 0.246 µM); MIC [36]: 16 µg/mL (≈ 31.5 µM); MIC [37]: 0.25 µg/mL (≈ 0.492 µM)
